Laboratory results reported in patent US20110257074A1, “METHOD FOR THE PURIFICATION OF SUBSTITUTED CYCLOPENT-2-EN-1-ONE CONGENERS AND SUBSTITUTED 1,3-CYCLOPENTADIONE CONGENERS FROM A COMPLEX MIXTURE USING COUNTERCURRENT SEPARATION” (Metaproteomics, LLC, priority 2008, published 2011).

What was measured:
[1] = Shake-flask liquid distribution ratio (Kd), Hexane:Water:Buffer 10:9:1 solvent system; format: physicochemical
Experimental: Several shake-flask experiments were conducted to test several solvent systems and determine the liquid distribution ratio (Kd) and partition coefficient values for optimal separations. Partition coefficient values derived from shake-flask experiments are a reliable predictor of countercurrent chromatographic behavior. Kd is the concentration of the analyte in the upper phase divided by the concentration of the analyte in the lower phase and, in the alternative, may be listed as Ku/l.
General Procedure and Parameters for Shake Flask Experiments: Addition of 1 mL of the stock buffer at a known pH. Addition of the other necessary solvents to make up the system. Addition of the analyte mixture dissolved in hexane at 400 mg/mL. Final analyte concentration in the shake flask is 0.1 mg/mL. The flask was capped and mixed (by a vortex mixer) for 10 seconds. An aliquot was taken from the upper phase for HPLC analysis, and additionally a separate aliquot was taken from the lower phase for HPLC analysis from each flask. Each component was analyzed by HPLC and integrated using Shimadzu Class VP Software version 7.3 SP1.

[2] = Partition coefficient in trial HSCCC countercurrent separations of THIAA; format: physicochemical
Experimental: All HSCCC experimentation was conducted on a CCC-1000 J-type three-coiled planetary motion HSCCCC (Pharma-Tech Research Corp., Baltimore, Md., USA). The rotation radius is 7.5 cm, and 3×108 mL PTFE Teflon coils with an inner diameter of 1.6 mm, an outer diameter of 2.7 mm, and beta values of 0.47 to 0.73 for all coils. This was coupled with Shimadzu (Kyoto, Japan) liquid chromatography instrumentation: LC-20AT pump, DGU-20A5 degasser, CBM-20A controller, and SPD-10AV UV detector. A preparative Rheodyne (Rohnert Park, Calif. USA) 3725i-038 injector was in line with a 3.8 mL sample loop (changed to 10 mL for entry 7). The sample was monitored at 254 nm and 314 nm during the course of the run.
KU/L values for THIAA were determined in a variety of HEMWat solvent systems according to the shake-flask partitioning assay. Two solvent systems, referred to as A and B, provided K values within the range 1.5-2.5 and with significant differences between THIAA congeners (•K). For these reasons solvent systems A and B were selected for further development on the HSCCC (Table 9). […] The entries in Table 10 correspond to seven trial THIAA HSCCC purifications; entries 1-3 were conducted using solvent system A; entries 4-7 used solvent system B. Because of the difference in THIAA concentration between the shake-flask assay (0.1 mg/mL, 0.273 mM) and the HSCCC sample loop (100 mg/mL; 273 mM), aqueous phase buffer concentrations of 1.2 M (entries 1-3, Table 10) and 555 mM (entries 4-7, Table 10) were employed for the HSCCC trials. Entry 3 in Table 10 uses a bi-phasic sample-loop injection (solvent C, Table 9) consisting of 1.9 mL of upper phase (200 mg/mL THIAA, 0.55M) and 1.9 mL of lower phase (6.5M NH4HAc aq.). A switching volume was employed in entries 2, 6 and 7 in order to assess the elution-extrusion protocol as reported by Pauli et al.
Entries 4 & 5 Table 10, examine the effect of increasing the pH for solvent system B on the resolution between THIAA congeners. We reasoned that increased pH leads to a greater concentration of the ionized form of the THIAA (conjugate base) thus resulting in greater amounts of THIAA retained in the aqueous stationary phase i.e., increased retention volume (Vr).

[3] = trial 1, solvent system A, ascending elution, 680 rpm, 4 mL/min, 3.8 mL sample loop
[4] = trial 2, solvent system A, switching volume 320 mL, ascending elution, 680 rpm, 4 mL/min
[5] = trial 3, solvent system A, bi-phasic sample-loop injection (1.9 mL solvent system C), ascending elution
[6] = trial 4, solvent system B′, ascending elution, 680 rpm, 4 mL/min
[7] = trial 5, solvent system B, ascending elution, 680 rpm, 4 mL/min
[8] = trial 6, solvent system B, switching volume 600 mL, ascending elution
[9] = trial 7, solvent system B, switching volume 520 mL, 1.0 g raw material loaded, 10 mL sample loop

SMILES | THIAA K Value ([1]; pH 4.9, Aug. 5, 2008) | THIAA K Value ([1]; pH 5.5, Aug. 5, 2008) | THIAA K Value ([1]; pH 5.6, Aug. 5, 2008) | THIAA K Value ([1]; pH 6.0, Aug. 5, 2008) | Partition Coefficient [2, 3] | Partition Coefficient [2, 4] | Partition Coefficient [2, 5] | Partition Coefficient [2, 6] | Partition Coefficient [2, 7] | Partition Coefficient [2, 8] | Partition Coefficient [2, 9]
CC(C)CCC(=O)[C@]1(O)C(O)=C(C(=O)CC(C)C)C(=O)[C@H]1CCC(C)C [TH5, (+)-(4R,5S)-3,4-dihydroxy-2-(3-methylbutanoyl)-5-(3-methylbutyl)-4-(4-methylpentanoyl)cyclopent-2-en-1-one] | 32.8 | 9.5 | 6.6 | 3.3 | 1.4 | 1.4 | 1.4 | 0.9 | 1.3 | 1.3 | 1.5
CC(C)CCC(=O)[C@@]1(O)C(O)=C(C(=O)C(C)C)C(=O)[C@H]1CCC(C)C [TH2, (−)-(4S,5S)-3,4-dihydroxy-2-isobutyryl-5-(3-methylbutyl)-4-(4-methylpentanoyl)cyclopent-2-en-1-one] | 10.8 | 2.5 | 1.8 | 0.9 |  |  |  |  |  |  | 
CCC(C)C(=O)C1=C(O)C(O)(C(=O)CCC(C)C)C(CCC(C)C)C1=O (stereo not drawn) [TH3, trans tetra ad-isoalpha acid] | 60.3 | 17.8 | 11.4 | 5.5 |  |  |  |  |  |  | 
CC(C)CCC(=O)[C@]1(O)C(O)=C(C(=O)C(C)C)C(=O)[C@H]1CCC(C)C [TH1, (+)-(4R,5S)-3,4-dihydroxy-2-isobutyryl-5-(3-methylbutyl)-4-(4-methylpentanoyl)cyclopent-2-en-1-one] | 16.5 | 4.2 | 3.0 | 1.5 | 2.0 | 2.0 | 2.1 | 1.7 | 2.5 | 2.7 | 2.6
CCC(C)C(=O)C1=C(O)[C@@](O)(C(=O)CCC(C)C)[C@H](CCC(C)C)C1=O (single isomer, unassigned; (+)) [TH4] | 55.6 | 16.1 | 11.0 | 5.5 | 1.0 | 1.0 | 1.1 | 0.6 | 0.8 | 0.8 | 0.8
